Measured values reported in PMC10714399, “Open Source Antibiotics: Simple Diarylimidazoles Are Potent against Methicillin-Resistant Staphylococcus aureus” (ACS Infectious Diseases, 2023).
In brackets after ≈: the same amount, converted by molar mass. Read-outs that look alike come from different tables or passages of the source. Blank lines part the entries; values can stand above or below the compound they belong to.

Key:
[1] = test system: S. aureus ATCC 25923 (methicillin-susceptible); experiment: In vitro antibacterial activity, MIC (UCL), MSSA; format: cell-based, Staphylococcus aureus; conditions: Staphylococcus aureus
How it was run: (§1)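 Each organism was taken from overnight tryptone soya agar, suspended in PBS at A600 0.1, diluted 1:100 in isosensitest broth and added to serially diluted compound (32 to 0.03 μg/mL).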

[2] = In vitro metabolic stability, human liver microsomes (Monash); format: in vitro ADME
Protocol: (§2) The metabolic stability assay was performed by incubating each test compound with a suspension of liver microsomes (0.4 mg/mL protein, 1 μM substrate, 37 °C). Microsomes were purchased from XenoTech. The metabolic reaction was initiated by the addition of an NADPH-regenerating system and quenched at various time points over a 60 min incubation by the addition of acetonitrile containing metolazone as an internal standard. Control samples (containing no NADPH) were included (quenched at 2, 30, and 60 min) to monitor for potential degradation in the absence of cofactor. […]
(§3) d) In Vitro Metabolic Stability
(§4) The metabolic stability assay was performed by incubating each test compound with a suspension of liver
(§5) microsomes (0.4 mg/mL, 37°C). The metabolic reaction was initiated by the addition of an NADPH-regenerating
(§6) system and quenched at various time points over a 60 minute incubation by the addition of acetonitrile containing
(§7) metolazone as internal standard. Control samples (containing no NADPH) were included (quenched at 2, 30 and 60
(§8) minutes) to monitor for potential degradation in the absence of cofactor.
(§9) The human liver microsomes used in this experiment were supplied by XenoTech, lot # 1710084.The rat liver
(§10) microsomes used in this experiment were supplied by XenoTech, lot # 1610290. Microsomal incubations were
(§11) performed at a substrate concentration of 1 µM.
(§12) Data analysis and interpretation:
(§13) Substrate depletion as a function of time was analysed as described by Obach (1999) Drug Metab. Dispos., 27:1350-
(§14) 1359. Intrinsic clearance (CLint) values were classified at the limits of low and high clearance bands based on a
(§15) rearrangement of the well stirred model of hepatic elimination. It should be noted that the potential impact of
(§16) compound binding (either in microsomes or in blood) on the relationship between in vitro intrinsic clearance and
(§17) hepatic clearance in vivo has not been accounted for in these studies.
(§18) In Vitro Intrinsic Clearance
(§19) Species (µL/min/mg protein)
(§20) Low Clearance High Clearance
(§21) Experimental results are tabulated on the following page(s).
(§22) (1 picture or pasted object on this page, not shown here)

[3] = In vitro metabolic stability, rat liver microsomes (Monash); format: in vitro ADME
Protocol: as §2, §3, §4, §5, §6, §7, §8, §9, §10, §11, §12, §13, §14, §15, §16, §17, §18, §19, §20, §21, §22

[4] = test system: Enterococcus faecalis ATCC 51299 (vanA-positive; vancomycin-resistant); experiment: In vitro antibacterial activity, MIC (UCL), VRE; format: cell-based
How it was run: as §1

[5] = Kinetic solubility estimation using nephelometry (Monash); format: physicochemical; conditions: for solubility kinetic at 30 min: kinetic from dmso stock
Protocol: Compound in DMSO was spiked into either pH 6.5 phosphate buffer or 0.01 M HCl (approximately pH 2.0) with the final DMSO concentration being 1%. […]
b) Kinetic Solubility Estimation using Nephelometry (SolpH)
Compound in DMSO was spiked into either pH 6.5 phosphate buffer or 0.01 M HCl (approx pH 2.0) with the final
DMSO concentration being 1%. After 30 minutes had elapsed, samples were then analysed via Nephelometry to
determine a solubility range. See Bevan and Lloyd (2000) Anal Chem, 72:1781-1787. […]
In Vitro Intrinsic Clearance […]
as §21, §22

[6] = Human liver microsome intrinsic clearance; format: in vitro ADME; conditions: human liver microsomes, NEU
[7] = Human plasma protein binding (PPB); format: in vitro ADME; conditions: human, plasma
[8] = test system: Staphylococcus aureus NCTC 13373 (mecA-positive; methicillin-resistant); experiment: In vitro antibacterial activity, MIC (UCL School of Pharmacy assay), MRSA; format: cell-based; conditions: for MIC: Staphylococcus aureus
How it was run: as §1

Aqueous solubility = format: physicochemical; conditions: for solubility: thermodynamic from solid
[9] = 0.01 M HCl, simulated gastric fluid, pH 2.0, read-out: Sol (pH 2.0) (Monash)
[10] = pH 6.5 phosphate buffer, pH 6.5, aqueous buffer, read-out: Sol (pH 6.5) (Monash)
[11] = human plasma, NEU, read-out: Human PPB (NEU) (converted)
[12] = NADPH, read-out: CLint, in vitro

- MIC ([1]; read-out: MSSA MIC (UCL)): 4 µg/mL (≈ 12.6 µM)
- HLM Clint (Monash) ([2]; Monash): 72 µL/min/mg
- HLM t1/2 (Monash) ([2]; Monash): 24 min
- RLM Clint (Monash) ([3]; Monash): 503 µL/min/mg
- RLM t1/2 (Monash) ([3]; Monash): 3 min
- MIC ([4]; read-out: VRE MIC (UCL)): 8 µg/mL (≈ 25.2 µM)
- solubility kinetic at 30 min [5, 9]: 50 to 100 µg/mL (≈ 158 to 315 µM)
- solubility kinetic at 30 min [5, 10]: 12.5 to 25 µg/mL (≈ 39.4 to 78.8 µM)
- HLM CLint (NEU) [6]: 61.5 uL/min/mg protein
- fraction unbound [7, 11]: 0.023
- MIC ([8]; UCL, read-out: MRSA MIC (UCL)): 4 µg/mL (≈ 12.6 µM)
- Aqueous Solubility (NEU) (Aqueous solubility; NEU): 3 µM
SMILES: c1ccc(-c2nc3n(c2-c2ccc4sccc4c2)CCC3)nc1 [OSA_000822]

- MIC ([1]; read-out: MSSA MIC (UCL)): 2 µg/mL (≈ 6.64 µM)
- microsomal CLint at 1 µM ([2]; Monash, read-out: HLM Clint (Monash)): 51 µL/min/mg
- half-life at 1 µM ([2]; Monash, read-out: HLM t1/2 (Monash)): 34 min
- microsomal CLint at 1 µM ([3]; Monash, read-out: RLM Clint (Monash)): 72 µL/min/mg
- half-life at 1 µM ([3]; Monash, read-out: RLM t1/2 (Monash)): 24 min
- MIC ([4]; read-out: VRE MIC): 2 µg/mL (≈ 6.64 µM)
- solubility kinetic at 30 min [5, 9]: > 100 µg/mL
- solubility kinetic at 30 min [5, 10]: 25 to 50 µg/mL (≈ 83 to 166 µM)
- microsomal CLint ([6]; read-out: HLM CLint (NEU)): 63.5 µL/min/mg
- fraction unbound [7, 11]: 0.028
- MIC ([8]; 16 h, read-out: MRSA MIC): 4 µg/mL (≈ 13.3 µM)
- MIC ([8]; UCL, read-out: MRSA MIC (UCL)): 2 µg/mL (≈ 6.64 µM)
- MIC ([8]; read-out: MRSA MIC): 2 µg/mL (≈ 6.64 µM)
- solubility (Aqueous solubility; NEU, read-out: Aqueous Solubility (NEU)): 117 µM (≈ 35.3 µg/mL)
SMILES: c1ccc(-c2nc3n(c2-c2ccc4occc4c2)CCC3)nc1 [compound 821]

- MIC ([1]; read-out: MSSA MIC): 4 µg/mL (≈ 12.6 µM)
- microsomal CLint at 1 µM [2, 12]: 72 µL/min/mg
- half-life at 1 µM ([2]; NADPH, read-out: T1/2): 24 min
- microsomal CLint at 1 µM [3, 12]: 503 µL/min/mg
- half-life at 1 µM ([3]; NADPH, read-out: T1/2): 3 min
- MIC ([4]; read-out: VRE MIC): 8 µg/mL (≈ 25.2 µM)
- Sol 2.0 ([5]; 0.01 M HCl, approx pH 2.0): 50 to 100 µg/mL
- Sol 6.5 ([5]; pH 6.5 phosphate buffer): 12.5 to 25 µg/mL
- fraction unbound ([7]; read-out: Human PPB (converted)): 0.023
- MRSA MIC [8]: 4 µg/mL
- MIC ([8]; 16 h, read-out: MRSA MIC): 2 µg/mL (≈ 6.3 µM)
- MIC ([8]; read-out: MRSA MIC): 2 µg/mL (≈ 6.3 µM)
- solubility (Aqueous solubility; read-out: Aqueous Solubility): 3 µM (≈ 0.952 µg/mL)
SMILES: c1ccc(-c2nc3n(c2-c2ccc4sccc4c2)CCC3)nc1 [compound 822]
- activity against MRSA, in words [8]: MRSA-active
